Patent US20080076824A1, “Compounds That Inhibit Replication Of Human Immunodeficiency Virus” (priority 2004, published 2008)
“And” between values parts separate entries of the source, which are not always exact repeats. Equal entries are not always repeated. “Also recorded” adds a separate entry of the source. Where two headings read alike, the source gives them in different places. Residues, ends and D or L forms follow the SMILES beside them.

Experiments:
HIV-2 (ROD) = experiment: microbe, parasite or virus in culture; format: cell-based; conditions: CEM cell cultures, syncytia formation, Table 1; read-out: EC50 HIV-2 ROD
In short: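 CEM, C8166 or MT-4 cells (4 to 5×10^5 cells/ml) infected with HIV-2 ROD at ~100 CCID50/ml, then incubated with 5-fold compound dilutions at 37 °C for 4–5 days. Giant cell formation scored microscopically in CEM and C8166 cultures; MT-4 viability counted by trypan blue exclusion.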

HIV-1 (IIIB) [1] = experiment: microbe, parasite or virus in culture
In short: (§1)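 MT-4, C8166 or CEM cells (4 to 5×10^5 cells/ml) infected at ~100 CCID50/ml, incubated with 5-fold compound dilutions at 37 °C for 4–5 days. Read-out: microscopic giant-cell formation in CEM and C8166 cultures; viable-cell count by trypan blue in MT-4.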

HIV-2(ROD) = experiment: microbe, parasite or virus in culture
In short: as §1

Coxsackie virus B4 = experiment: Antiviral activity in HeLa cell cultures, Coxsackie virus B4; format: cell-based; conditions: reduces virus-induced cytopathogenicity by 50%, read-out: Minimum inhibitory concentration Coxsackie virus B4
Procedure: The cytotoxicity and antiviral activity of various concentrations of G-NH2 and GPG-NH2 were evaluated in cell cultures that were infected with various types of viruses. Conventional host cell culture, viral infection, and infectivity analysis for each different type of cell and virus were followed. Compounds that were known to inhibit replication of the particular types of viruses analyzed were used as controls.

HIV (SF2 virus) [2] = experiment: HIV infectivity assay, SF2-infected H9 cells, reverse transcriptase (RT) quantification in supernatant; format: cell-based; conditions: for RT mean: mean of replicates; for RT: single replicate
HIV (SF2 virus) [3] = experiment: HIV infectivity assay, SF2-infected H9 cells, p24 quantification; format: cell-based; conditions: for OD1: replicates (1)-(3)
Procedure: The remaining wells were filled with sterile distilled water. The cell culture plates were incubated at 37° C. and 5% CO2. After four days the medium was changed, after eight days the medium was changed and the cells were collected. After 11 days, the infection was stopped, the cells were viewed in a 10× magnification microscope and 650 μl of each cell supernatant was collected and frozen at −80° C. for further analysis. After five more days, the supernatants were thawed and used in a conventional reverse transcriptase (RT) activity assay (e.g., Roche AMPLICOR MONITOR™) or a p24 quantification assay (e.g., Abbott Laboratories, Chicago). (See U.S. Pat. No. 6,258,932 and U.S. patent application Ser. No. 10/235,158, both of which are hereby expressly incorporated by reference in its entireties).
[…] The cells in the samples were counted and then centrifuged. The cells were then resuspended in 10 ml of RPMI 1640 (containing fetal calf serum) and either […] Metabolite X or 100 μM GPG-NH2. Uninfected control and untreated control samples were also included in the experiment. The samples were then incubated overnight at 37° C. at 5% CO2.
Then, the amount of p24 in the samples was analysed using a conventional p24 detection assay (see U.S. Pat. No. 6,258,932).
Three replicate samples (“replicates”) of uninfected samples and untreated samples were also included in the experiment as controls. The inhibition of HIV replication was monitored by quantifying the levels of p24 using a conventional detection kit.
Three replicates of unninfected samples and untreated samples were also included in the experiment as controls.

HIV-1 (IIIB) [4] = tested on: HIV-1 (IIIB)
[5] = tested on: Herpes simplex virus-2 (G); conditions: read-out: Minimum inhibitory concentration Herpes simplex virus-2 (G); HEL; reduces virus-induced cytopathogenicity by 50%
[6] = tested on: Herpes simplex virus-1 TK^− KOS ACV^r; conditions: read-out: Minimum inhibitory concentration Herpes simplex virus-1 TK^− KOS ACV^r; HEL; reduces virus-induced cytopathogenicity by 50%
Punta Toro virus = conditions: read-out: Minimum inhibitory concentration Punta Toro virus; Vero; reduces virus-induced cytopathogenicity by 50%
[7] = read-out: EC50 (C8166) HIV-1 (IIIB), Table 19
[8] = read-out: EC50 (MT-4) HIV-1 (IIIB), Table 19
[9] = read-out: EC50 (C8166) HIV-2 (ROD), Table 19
[10] = read-out: EC50 (MT-4) HIV-2 (ROD), Table 19
[11] = read-out: 50% effective concentration, HIV replication in CEM cell cultures
[12] = read-out: EC50 (CEM) HIV-1 (IIIB), Table 19
[13] = read-out: EC50 HIV-1 IIIB, CEM cell cultures, syncytia formation, Table 1

For `NCC(N)=O` [G-NH2, glycinamide], the EC50 (HIV-2 (ROD)) was 35 ± 8.7 µM, the EC50 (HIV-1 (IIIB) [1]; [7]) was 150 µM and the EC50 (HIV-1 (IIIB) [1]; read-out: EC50 (C8166) HIV-1 (IIIB), Table 20) was 150 µM. For the same compound, the EC50 (HIV-1 (IIIB) [1]; [8]) was over 500 µM, the EC50 (HIV-1 (IIIB) [1]; read-out: EC50 (MT-4) HIV-1(IIIB), Table 20, related set of experiments) was over 500 µM and the EC50 (HIV-2(ROD); [9]) was 150 µM. The EC50 (HIV-2(ROD); read-out: EC50 (C8166) HIV-2 (ROD), Table 20) was 150 µM, the EC50 (HIV-2(ROD); [10]) was over 500 µM and the EC50 (HIV-2(ROD); read-out: EC50 (MT-4) HIV-2 (ROD), Table 20) was over 500 µM. For the same compound, the EC50 (Coxsackie virus B4) was over 2000 µM, the OD405-620 (HIV (SF2 virus) [2]; 0.5 μM, fetal calf serum) was 0.871 and 0.896 and 0.908 and the “OD405-620 - Blank” value (HIV (SF2 virus) [2]; 0.5 μM, fetal calf serum) was 0.845 and 0.87 and 0.882. For the same compound, the RT mean (HIV (SF2 virus) [2]; 0.5 μM, fetal calf serum) was 9152 pg/mL, the RT (HIV (SF2 virus) [2]; 0.5 μM, fetal calf serum) was 8927 pg/mL and 9199 pg/mL and 9329 pg/mL and the OD405-620 (HIV (SF2 virus) [2]; 1 μM, fetal calf serum) was 0.563 and 0.672 and 0.712. The “OD405-620 - Blank” value (HIV (SF2 virus) [2]; 1 μM, fetal calf serum) was 0.537 and 0.646 and 0.686, the RT mean (HIV (SF2 virus) [2]; 1 μM, fetal calf serum) was 6514 pg/mL and the RT (HIV (SF2 virus) [2]; 1 μM, fetal calf serum) was 5579 pg/mL and 6764 pg/mL and 7199 pg/mL. The OD405-620 (HIV (SF2 virus) [2]; 2 μM, fetal calf serum) was 0.868 and 0.903 and 0.528, the “OD405-620 - Blank” value (HIV (SF2 virus) [2]; 2 μM, fetal calf serum) was 0.842 and 0.877 and 0.502 and the RT mean (HIV (SF2 virus) [2]; 2 μM, fetal calf serum) was 7789 pg/mL. The RT (HIV (SF2 virus) [2]; 2 μM, fetal calf serum) was 8895 pg/mL and 9275 pg/mL and 5199 pg/mL, the OD405-620 (HIV (SF2 virus) [2]; 4 μM, fetal calf serum) was 0.781 and 0.493 and 0.539 and the “OD405-620 - Blank” value (HIV (SF2 virus) [2]; 4 μM, fetal calf serum) was 0.755 and 0.467 and 0.513. For the same compound, the RT mean (HIV (SF2 virus) [2]; 4 μM, fetal calf serum) was 6029 pg/mL, the RT (HIV (SF2 virus) [2]; 4 μM, fetal calf serum) was 7949 pg/mL and 4818 pg/mL and 5318 pg/mL and the OD405-620 (HIV (SF2 virus) [2]; 8 μM, fetal calf serum) was 0.274 and 0.302 and 0.332. The “OD405-620 - Blank” value (HIV (SF2 virus) [2]; 8 μM, fetal calf serum) was 0.248 and 0.276 and 0.306, the RT mean (HIV (SF2 virus) [2]; 8 μM, fetal calf serum) was 2750 pg/mL and the RT (HIV (SF2 virus) [2]; 8 μM, fetal calf serum) was 2438 pg/mL and 2742 pg/mL and 3068 pg/mL. For the same compound, the OD405-620 (HIV (SF2 virus) [2]; 16 μM, fetal calf serum) was 0.563 and 0.861 and 0.902, the “OD405-620 - Blank” value (HIV (SF2 virus) [2]; 16 μM, fetal calf serum) was 0.537 and 0.835 and 0.876 and the RT mean (HIV (SF2 virus) [2]; 16 μM, fetal calf serum) was 158 pg/mL. For the same compound, the RT (HIV (SF2 virus) [2]; 16 μM, fetal calf serum) was 112 pg/mL and 176 pg/mL and 185 pg/mL, the OD405-620 (HIV (SF2 virus) [2]; 32 μM, fetal calf serum) was 0.141 and 0.155 and the “OD405-620 - Blank” value (HIV (SF2 virus) [2]; 32 μM, fetal calf serum) was 0.115 and 0.129. For the same compound, the RT mean (HIV (SF2 virus) [2]; 32 μM, fetal calf serum) was 21 pg/mL, the RT (HIV (SF2 virus) [2]; 32 μM, fetal calf serum) was 20 pg/mL and 23 pg/mL and the “inhibition of HIV replication, reverse transcriptase (RT) activity” value (HIV (SF2 virus) [2]; cultures containing boiled fetal calf serum) was “unable to inhibit replication of HIV; also recorded: did not”. For the same compound, the OD1 (HIV (SF2 virus) [3]; 50 μM, fetal calf serum) was 0.182 and 0.105 and 0.319, the “conc p24” value (HIV (SF2 virus) [3]; 50 μM, human serum) was 714.23 ng/mL and 653.27 ng/mL and 773.51 ng/mL and the OD2 (HIV (SF2 virus) [3]; 100 μM, fetal calf serum) was 0.075 and 0.069 and 0.071. For the same compound, the “conc p24” value (HIV (SF2 virus) [3]; 100 μM, fetal calf serum) was 0.09 ng/mL and 0.08 ng/mL, the “mean OD” value (HIV (SF2 virus) [3]; 100 μM, fetal calf serum) was 0.077 and 0.070 and 0.074 and the “mean OD - blank” value (HIV (SF2 virus) [3]; 100 μM, fetal calf serum) was 0.035 and 0.028 and 0.032. The OD1 (HIV (SF2 virus) [3]; 100 μM, fetal calf serum) was 0.078 and 0.071 and 0.077, the “conc p24” value (HIV (SF2 virus) [3]; 100 μM, human serum) was 780.21 ng/mL and 785.24 ng/mL and 876.34 ng/mL and the “inhibition of HIV replication, accumulation of p24” value (HIV (SF2 virus) [3]; human serum) was “unable to inhibit HIV replication in human serum”. The “ability to inhibit the replication of HIV” value (HIV-1 (IIIB) [4]; G-NH2 in medium with heat inactivated serum (10% fetal bovine serum, 95° C., 30 minutes)) was “lost its ability to inhibit the replication of HIV”, the “inhibition of replication of HIV” value (HIV-1 (IIIB) [4]; boiled fetal bovine serum or human serum samples, results the experiments will show) was “does not” and the EC50 (HIV-1 (IIIB) [4]; [11]) was about 30 µM. It also gave an EC50 (HIV-1 (IIIB) [4]; [12]) of 25 ± 7.1 µM, an EC50 (HIV-1 (IIIB) [4]; read-out: EC50 (CEM) HIV-1(IIIB), Table 20) of 25 ± 7.1 µM and an EC50 (HIV-1 (IIIB) [4]; [13]) of 32 ± 7.6 µM. It also gave an EC50 (HIV-1 (IIIB) [4]; read-out: EC50 against HIV-1(IIIB), CEM cell cultures, Table 2) of about 21.3 µM, an EC50 (HIV-1 (IIIB) [4]; read-out: EC50 against HIV-1(IIIB), CEM cell cultures, Table 2, listed as Glycinamide) of 21.3 ± 16.3 µM and an EC50 [5] of over 2000 µM. The EC50 [6] was over 2000 µM and the EC50 (Punta Toro virus) was over 2000 µM.

Compound `NCC(=O)N1CCC[C@H]1C(=O)NCC(N)=O` [GPG-NH2, glycylprolylglycinamide] (H-Gly-Pro-Gly-NH2) has an EC50 (HIV-2 (ROD)) of 30 ± 10 µM, an EC50 (HIV-1 (IIIB) [1]; [7]) of 150 µM and an EC50 (HIV-1 (IIIB) [1]; [8]) of over 500 µM. It also gave an EC50 (HIV-2(ROD); [9]) of 150 µM, an EC50 (HIV-2(ROD); [10]) of over 500 µM and an EC50 (Coxsackie virus B4) of over 400 µM. For the same compound, the “reverse transcriptase activity in treated samples” value (HIV (SF2 virus) [2]; 100 μM, fetal calf serum) was “no reverse transcriptase activity”, the “inhibition of HIV replication, p24” value (HIV (SF2 virus) [3]; 100 μM, presence of fetal calf serum) was “effectively inhibited HIV replication” and the EC50 (HIV-1 (IIIB) [4]; [11]) was about 30 µM. It also gave an EC50 (HIV-1 (IIIB) [4]; [12]) of 30 µM, an EC50 (HIV-1 (IIIB) [4]; [13]) of 35 ± 8.7 µM and an EC50 [5] of over 400 µM. It also gave an EC50 [6] of over 400 µM and an EC50 (Punta Toro virus) of over 400 µM.
